Results as given in patent US20240217973A1, “IMIDAZOPYRIDINE COMPOUNDS AND USE THEREOF” (MEDSHINE DISCOVERY INC., priority 2021, published 2024).

Key:
BTK kinase = BTK kinase (Homo sapiens (Human), UniProt Q06187); experiment: BTK kinase experiment (ADP-Glo); assay type: biochemical; settings: 2 μM ATP, PolyE4Y1 substrate, 30 minutes pre-incubation
Protocol: BTK kinase, PolyE4Y1 substrate and Kinase assay buffer III were purchased from Signalchem; ADP-Glo Kinase Assay was purchased from Promega; Nivo multi-label analyzer (PerkinElmer).
1× buffer preparation (which was prepared and used immediately): Kinase assay buffer III was diluted with ddH2O to 1× assay buffer for later use.
The compound to be tested was diluted with 100% DMSO to 10 μM as the first concentration, and followed by a 5-fold dilution to the 8th concentration using a multi-channel pipette, i.e., it was diluted from 10 μM to 0.128 nM.
Each gradient of the compound to be tested was diluted into a working solution with 5% DMSO using 1× buffer, 1 μL/well was added to the corresponding well, and a double-replicate well experiment was set up. 2 μL of BTK enzyme (4 ng) was add to each well and incubating at 25° C. for 30 minutes. After the incubation was completed, 2 μL of a mixture of substrate and ATP (2 μM ATP, 0.2 μg/μL PolyE4Y1) was added to each well and incubating at 25° C. for 120 minutes. At this point, the final concentration gradient of the compound was diluted from 100 nM to 0.00128 nM. After the reaction was completed, 5 μL of ADP-Glo reagent was added to each well, and the reaction continued at 25° C. for 40 minutes. After the reaction was completed, 10 μL of kinase detection reagent was added to each well. After reacting at 25° C. for 30 minutes, PerkinElmer Nivo multi-label analyzer was used to read the chemiluminescence, and the integration time was 0.5 seconds.
Raw data was converted into inhibition rate using the equation: (Sample−Min)/(Max−Min)*100%. The IC50 value could then be derived by performing a curve fit using four-parameter (which was obtained using the “log(inhibitor) vs. response-Variable slope” mode in GraphPad Prism).

[1] = Hepatocyte metabolic stability experiment (HMS), M; assay type: in vitro ADME; settings: mouse, M hepatocytes, read-out: HMS CLint(liver)
Protocol: (§1) Experimental operations: 198 μL of hepatocyte suspension (0.51×10^6 cells/mL) was added to the preheated incubation plate, and 198 μL of culture medium without hepatocytes was added to T0-MC and T120-MC incubation plates for the culture medium control group, and all incubation plates were pre-incubated for 10 minutes in a 37° C. incubator. Then 2 μL of the working solution of the test and control compounds were added and mixed well, and the incubation plate was immediately put into the plate shaker in the incubator, the rotation speed was adjusted to about 650 rpm, and the timer and the reaction were started. 2 duplicate samples for each compound were prepared at each time point. Incubation conditions: 37° C., saturated humidity, and containing 5% CO2. In the test system, the final concentration of the test compound was 1 μM, the final concentration of the control compound was 3 μM, the final concentration of hepatocytes was 0.5×10^6 cells/mL, and the final concentration of the total organic solvent was 0.96%, of which the final concentration of DMSO was 0.1%. […] All samples were mixed and analyzed by LC-MS/MS method. […]

[2] = Hepatocyte metabolic stability experiment (HMS), R; assay type: in vitro ADME; settings: rat, R hepatocytes, read-out: HMS CLint(liver)
Protocol: as §1

[3] = Hepatocyte metabolic stability experiment (HMS), H; assay type: in vitro ADME; settings: human, H hepatocytes, read-out: HMS CLint(liver)
Protocol: as §1

HPBMC cells = experiment: HPBMC experiment: CD69 on anti-human IgM stimulated B cells, flow cytometry; assay type: cell-based; settings: B-cell, B cells isolated from PBMC, 48 hours
Protocol: • 1) Medium: RPMI Medium 1640+1% P/S+10% FBS • 2) MACS buffer: 2% FBS+1 mM EDTA in DPBS • 3) Staining buffer: DPBS+2% FBS • 1.2 Dilution of Compounds and Anti-Human IgM
The initial concentration of the compound to be tested was […], 3-fold dilution, 9 points, and it was added to a 96 well plate after dilution, 50 μL/ well.
The anti-human IgM was diluted according to Table 2 below, and added to the 96 well plate after dilution, 50 μL/well.
• 1) PBMC was removed from a liquid nitrogen tank, then resuscitated and thawed in a 37° C. water bath; • 2) Using a B cell olation kit, B cells were isolated from PBMC according to the instructions, and their viability and number were calculated using a cell counter.
Table 10 Number and viability of PBMC and B cells • 3) The cells were resuspended with 1640 culture medium to a final concentration of 1 M/mL. • 4) The B cells were spread at 0.1 M/ well (100 μL) into a 96-well flat-bottom plate already containing the compound and anti-IgM. • 5) The plate was incubated in a 37° C. CO2 incubator for 48 hours; […]

BTK kinase, sequence (Q06187 whole entry): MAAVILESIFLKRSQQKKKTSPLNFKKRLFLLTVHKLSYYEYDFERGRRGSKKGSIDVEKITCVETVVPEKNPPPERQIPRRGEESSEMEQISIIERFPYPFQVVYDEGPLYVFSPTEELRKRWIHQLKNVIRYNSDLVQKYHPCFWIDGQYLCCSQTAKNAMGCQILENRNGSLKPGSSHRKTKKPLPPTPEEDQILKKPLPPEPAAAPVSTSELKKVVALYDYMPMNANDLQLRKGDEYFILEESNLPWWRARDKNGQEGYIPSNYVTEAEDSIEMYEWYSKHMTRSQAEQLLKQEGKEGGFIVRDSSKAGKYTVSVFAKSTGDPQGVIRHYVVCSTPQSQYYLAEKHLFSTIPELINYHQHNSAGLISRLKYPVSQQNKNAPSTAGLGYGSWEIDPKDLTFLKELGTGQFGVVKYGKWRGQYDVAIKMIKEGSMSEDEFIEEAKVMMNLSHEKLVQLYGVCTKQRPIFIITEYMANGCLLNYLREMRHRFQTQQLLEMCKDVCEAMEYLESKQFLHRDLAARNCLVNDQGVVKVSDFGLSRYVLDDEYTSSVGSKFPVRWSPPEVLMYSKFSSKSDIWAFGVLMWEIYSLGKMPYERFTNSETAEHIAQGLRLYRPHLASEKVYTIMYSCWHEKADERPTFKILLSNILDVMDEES

Structure (SMILES): Nc1nccc2c1n(-c1ccc(Oc3ccccc3)cc1)c(=O)n2[C@@H]1CCCN(C(=O)/C=C/CF)C1 [Compound 002]
- IC50 (BTK kinase): 1.65 nM
- CLint scaled at 1 μM [1]: 702 mL/min/kg
- CLint scaled at 1 μM [2]: 171 mL/min/kg
- CLint scaled at 1 μM [3]: 130 mL/min/kg
- IC50 (HPBMC cells): 3.6 nM
